The text below walks through data of patent publication US20120270875A1, “PYRIMIDINE AMIDE COMPOUNDS” (priority 2011, published 2012).

Where two headings read alike, the source gives them in different places.

This assay concerns the target sLFA-1/ICAM-1 (Homo sapiens, UniProt P05107+P20701, DEL701-769). Put plainly: sLFA-1/ICAM-1 ELISA. In kind it is binding. The method, then: sLFA-1/ICAM-1 ELISA and Mac-1/ICAM-1 ELISA
Plates were coated with either 50 μl/well of 2.0 ug/ml solution of sLFA-1 or Mac-1 receptor in divalent cation buffer (1 mM MnCl2, 0.14M NaCl, 20 mM HEPES pH 7.2) at 4° C. overnight. Two hundred fifty μl of blocking buffer (1% BSA in divalent cation buffer) was added to each well 1 hour at 37° C. Plates were washed 3 times with wash buffer (TBS/0.05% Tween-20/1 mM MnCl2). The compound to be tested was solubilized in DMSO. A series of 1:3 dilutions were performed to achieve a concentration range of 0.45 nM-3 uM. Fifty μl of binding buffer (0.5% BSA in divalent cation buffer)/1% DMSO and 50 μl of the solutions to be tested were added to the appropriate wells and incubated for 1 hour. Fifty μl of 5dICAM-Fc (27 ng/ml) was added to the appropriate wells and 50 μl binding buffer was added to non-specific binding wells and incubated for 2 hours and washed. One hundred μl of 1:4000 HRP-goat anti-huIgG was added to each well and incubated for 1 hour and washed. One hundred μl of 1:1 TMB solution was added to each well and developed for 20 min at room temperature. Color development was stopped by adding 100 μl H3PO4 to each well. Absorbance was measured at 450 nm.
A general note: In an ELISA, binding on a coated surface is turned into a signal by an enzyme label.

[1] abbreviates: sLFA-1 coated plates, 5dICAM-Fc binding, ELISA, read-out: LFA-1/ICAM (IC50).

sLFA-1/ICAM-1, sequence (P20701 26-1090 limits assumed, stated change not applied): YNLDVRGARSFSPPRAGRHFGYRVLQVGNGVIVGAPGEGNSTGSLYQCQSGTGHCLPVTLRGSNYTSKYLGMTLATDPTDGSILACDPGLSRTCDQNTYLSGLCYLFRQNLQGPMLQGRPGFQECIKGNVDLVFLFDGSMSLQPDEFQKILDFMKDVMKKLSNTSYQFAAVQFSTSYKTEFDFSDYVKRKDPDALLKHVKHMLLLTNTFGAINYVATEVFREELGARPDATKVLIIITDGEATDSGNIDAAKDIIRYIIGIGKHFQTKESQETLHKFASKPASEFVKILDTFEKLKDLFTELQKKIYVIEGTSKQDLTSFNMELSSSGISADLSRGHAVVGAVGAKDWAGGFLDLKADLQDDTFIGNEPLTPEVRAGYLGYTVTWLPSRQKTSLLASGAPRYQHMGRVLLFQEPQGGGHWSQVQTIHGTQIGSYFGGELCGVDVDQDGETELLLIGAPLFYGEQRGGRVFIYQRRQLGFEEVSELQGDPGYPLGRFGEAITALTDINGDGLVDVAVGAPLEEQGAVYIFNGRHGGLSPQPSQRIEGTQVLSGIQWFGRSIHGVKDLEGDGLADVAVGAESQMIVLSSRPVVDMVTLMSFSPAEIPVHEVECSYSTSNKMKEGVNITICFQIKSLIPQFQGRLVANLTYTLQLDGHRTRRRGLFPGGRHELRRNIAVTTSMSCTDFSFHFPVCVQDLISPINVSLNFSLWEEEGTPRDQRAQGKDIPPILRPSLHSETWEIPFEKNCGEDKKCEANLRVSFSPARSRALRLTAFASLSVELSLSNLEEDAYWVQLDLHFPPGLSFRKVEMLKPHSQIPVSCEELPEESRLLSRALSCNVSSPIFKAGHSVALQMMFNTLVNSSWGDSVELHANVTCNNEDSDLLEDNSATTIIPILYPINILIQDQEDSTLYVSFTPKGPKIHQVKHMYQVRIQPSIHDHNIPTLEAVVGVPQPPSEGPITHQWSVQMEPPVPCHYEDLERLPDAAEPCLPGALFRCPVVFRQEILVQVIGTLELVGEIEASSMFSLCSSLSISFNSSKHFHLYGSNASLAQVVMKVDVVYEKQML
sLFA-1/ICAM-1, sequence (P05107 23-700 limits assumed, stated change not applied): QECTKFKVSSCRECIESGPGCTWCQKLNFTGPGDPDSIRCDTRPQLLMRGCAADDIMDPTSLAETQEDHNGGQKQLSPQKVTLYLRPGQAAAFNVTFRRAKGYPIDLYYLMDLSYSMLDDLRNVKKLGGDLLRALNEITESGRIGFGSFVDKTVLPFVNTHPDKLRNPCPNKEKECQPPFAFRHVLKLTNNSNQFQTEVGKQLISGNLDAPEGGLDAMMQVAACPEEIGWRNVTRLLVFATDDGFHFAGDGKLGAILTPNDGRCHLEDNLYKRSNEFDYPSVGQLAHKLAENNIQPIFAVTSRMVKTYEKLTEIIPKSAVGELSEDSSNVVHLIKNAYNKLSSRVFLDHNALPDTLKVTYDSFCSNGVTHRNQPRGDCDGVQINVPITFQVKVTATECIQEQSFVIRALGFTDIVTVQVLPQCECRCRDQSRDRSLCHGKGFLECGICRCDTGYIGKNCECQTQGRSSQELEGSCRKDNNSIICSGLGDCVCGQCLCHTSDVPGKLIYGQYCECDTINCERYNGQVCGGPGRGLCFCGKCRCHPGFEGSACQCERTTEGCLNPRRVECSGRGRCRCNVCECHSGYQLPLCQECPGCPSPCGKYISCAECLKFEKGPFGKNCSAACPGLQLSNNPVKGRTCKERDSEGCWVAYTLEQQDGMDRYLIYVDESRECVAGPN

In the case of `Cc1nc(NCCCc2cccc(O)c2)nc(C)c1C(=O)N[C@@H](CNC(=O)Nc1ccccc1)C(=O)O` [Example 107, (S)-2-({2-[3-(3-hydroxy-phenyl)-propylamino]-4,6-dimethyl-pyrimidine-5-carbonyl}-amino)-3-(3-phenyl-ureido)-propionic acid], the IC50 was found to be 166 nM. Turning to `COC(=O)NC[C@H](NC(=O)c1c(C)nc(NCCCc2cccc(O)c2)nc1C)C(=O)O` [Example 109, (S)-2-({2-[3-(3-Hydroxy-phenyl)-propylamino]-4,6-dimethyl-pyrimidine-5-carbonyl}-amino)-3-methoxycarbonylamino-propionic acid], the IC50 under setting [1] was 198 nM. In the case of `Cc1csc(C(=O)NC[C@H](NC(=O)c2c(C)nc(NCCCc3cccc(O)c3)nc2C)C(=O)O)c1` [Example 89, (S)-2-({2-[3-(3-hydroxy-phenyl)-propylamino]-4,6-dimethyl-pyrimidine-5-carbonyl}-amino)-3-[(4-methyl-thiophene-2-carbonyl)-amino]-propionic acid], the IC50 under setting [1] amounted to 78 nM. Turning to `O=C(N[C@@H](CNC(=O)c1cccs1)C(=O)O)c1cnc(NCCCc2cccc(O)c2)nc1` [Example 75, (S)-2-({2-[3-(3-Hydroxy-phenyl)-propylamino]-pyrimidine-5-carbonyl}-amino)-3-[(thiophene-2-carbonyl)-amino]-propionic acid], the IC50 under setting [1] worked out at 64 nM. Same read-out and setting: then `Cc1cccc(C(=O)NC[C@H](NC(=O)c2c(C)nc(NCCCc3cccc(O)c3)nc2C)C(=O)O)c1` [Example 97, (S)-2-({2-[3-(3-hydroxy-phenyl)-propylamino]-4,6-dimethyl-pyrimidine-5-carbonyl}-amino)-3-(3-methyl-benzoylamino)-propionic acid], with 177 nM; and `Cc1nc(NCCCc2cccc(O)c2)nc(C)c1C(=O)N[C@@H](CNC(=O)CC1CCCCC1)C(=O)O` [Example 44, (S)-2-({2-[3-(3-hydroxy-phenyl)-propylamino]-4,6-dimethyl-pyrimidine-5-carbonyl}-amino)-3-[1-cyclohexyl-acetylamino]-propionic acid], with 115 nM; and `Cc1nc(NCCCc2cccc(O)n2)nc(C)c1C(=O)N[C@@H](CNC(=O)c1cccs1)C(=O)O` [Example 52, (S)-2-({2-[3-(6-Hydroxy-pyridin-2-yl)-propylamino]-4,6-dimethyl-pyrimidine-5-carbonyl}-amino)-3-[(thiophene-2-carbonyl)-amino]-propionic acid], with 1980 nM. The same measure, in the same setting: then `CCc1ccc(C(=O)NC[C@H](NC(=O)c2c(C)nc(NCCCc3cccc(O)c3)nc2C)C(=O)O)s1` [Example 105, (S)-[(5-Ethyl-thiophene-2-carbonyl)-amino]-2-({2-[3-(3-hydroxy-phenyl)-propylamino]-4,6-dimethyl-pyrimidine-5-carbonyl}-amino)-3-propionic acid], with 103 nM. `Cc1nc(NCCCc2cccc(O)c2)nc(C)c1C(=O)N[C@@H](CNC(=O)C12CC3CC(CC(C3)C1)C2)C(=O)O` [Example 99, (S)-3-[(Adamantane-1-carbonyl)-amino]-2-({2-[3-(3-hydroxy-phenyl)-propylamino]-4,6-dimethyl-pyrimidine-5-carbonyl}-amino)-propionic acid]: the IC50 under setting [1] was found to be 287 nM.

On to `Cc1nc(NCCCc2cccc(O)c2)nc(C)c1C(=O)N[C@@H](CNC(=O)c1csc(-c2ccncc2)n1)C(=O)O` (single isomer, unassigned) [Example 41], for which, under setting [1], the IC50 was 353 nM. Still for that read-out and setting: the figure for `O=C(NC[C@H](NC(=O)c1cnc(NCCCc2cccc(O)c2)nc1C(F)(F)F)C(=O)O)c1cccs1` [Example 77, (S)-2-({2-[3-(3-Hydroxy-phenyl)-propylamino]-4-trifluoromethyl-pyrimidine-5-carbonyl}-amino)-3-[(thiophene-2-carbonyl)-amino]-propionic acid] is 378 nM; for `Cc1nc(NCCCc2cccc(O)c2)nc(C)c1C(=O)N[C@@H](CNC(=O)c1sccc1Cl)C(=O)O` [Example 103, (S)-3-[(3-Chloro-thiophene-2-carbonyl)-amino]-2-({2-[3-(3-hydroxy-phenyl)-propylamino]-4,6-dimethyl-pyrimidine-5-carbonyl}-amino)-propionic acid] it is 66 nM; for `Cc1nc(NCc2ccccc2-c2cccc(O)c2)nc(C)c1C(=O)N[C@@H](CNC(=O)c1cccs1)C(=O)O` [Example 12, (S)-2-({2-[(3′-hydroxy-biphenyl-2-ylmethyl)-amino]-4,6-dimethyl-pyrimidine-5-carbonyl}-amino)-3-[(thiophene-2-carbonyl)-amino]-propionic acid] it is 191 nM. On the same count and under the same terms, then `Cc1nc(NCCCc2cccc(O)c2C)nc(C)c1C(=O)N[C@@H](CNC(=O)c1cccs1)C(=O)O` [Example 66, (S)-2-({2-[3-(3-Hydroxy-2-methyl-phenyl)-propylamino]-4,6-dimethyl-pyrimidine-5-carbonyl}-amino)-3-[(thiophene-2-carbonyl)-amino]-propionic acid], with 111 nM; and `Cc1nc(NCCCc2cccc(O)c2)nc(C)c1C(=O)N[C@@H](CNC(=O)N1CCCc2ccccc21)C(=O)O` [Example 115, (S)-3-[(3,4-Dihydro-2H-quinoline-1-carbonyl)-amino]-2-({2-[3-(3-hydroxy-phenyl)-propylamino]-4,6-dimethyl-pyrimidine-5-carbonyl}-amino)-propionic acid], with 456 nM; and `Cc1nc(NCCCc2cc(O)ccc2Cl)nc(C)c1C(=O)N[C@@H](CNC(=O)c1cccs1)C(=O)O` [Example 68, (S)-2-({2-[3-(2-Chloro-5-hydroxy-phenyl)-propylamino]-4,6-dimethyl-pyrimidine-5-carbonyl}-amino)-3-[(thiophene-2-carbonyl)-amino]-propionic acid], with 291 nM.

Turning to `Cc1nc(C)c(C(=O)NC[C@H](NC(=O)c2c(C)nc(NCCCc3cccc(O)c3)nc2C)C(=O)O)s1` [Example 43, (S)-2-({2-[3-(3-hydroxy-phenyl)-propylamino]-4,6-dimethyl-pyrimidine-5-carbonyl}-amino)-3-[(2,4-dimethyl-thiazole-5-carbonyl)-amino]-propionic acid], the IC50 under setting [1] came to 128 nM.

With `Cc1nc(NCCCc2cc(O)ccc2F)nc(C)c1C(=O)N[C@@H](CNC(=O)c1cccs1)C(=O)O` [Example 71, (S)-2-({2-[3-(2-Fluoro-5-hydroxy-phenyl)-propylamino]-4,6-dimethyl-pyrimidine-5-carbonyl}-amino)-3-[(thiophene-2-carbonyl)-amino]-propionic acid], the IC50 under setting [1] worked out at 224 nM.

`CCc1nc(NCCCc2cccc(O)c2)nc(CC)c1C(=O)N[C@@H](CNC(=O)c1cccs1)C(=O)O` [Example 79, (S)-2-({4,6-Diethyl-2-[3-(3-hydroxy-phenyl)-propylamino]-pyrimidine-5-carbonyl}-amino)-3-[(thiophene-2-carbonyl)-amino]-propionic acid]: under setting [1], the IC50 stood at 90 nM. The same measure, in the same setting: then `Cc1nc(NCCCc2cccc(O)c2)nc(C)c1C(=O)N[C@@H](CNC(=O)c1nccc2ccccc12)C(=O)O` [Example 45, (S)-2-({2-[3-(3-hydroxy-phenyl)-propylamino]-4,6-dimethyl-pyrimidine-5-carbonyl}-amino)-3-[(isoquinoline-1-carbonyl)-amino]-propionic acid], with 87 nM; and `Cc1ccsc1C(=O)NC[C@H](NC(=O)c1c(C)nc(NCCCc2cccc(O)c2)nc1C)C(=O)O` [Example 91, (S)-2-({2-[3-(3-hydroxy-phenyl)-propylamino]-4,6-dimethyl-pyrimidine-5-carbonyl}-amino)-3-[(3-methyl-thiophene-2-carbonyl)-amino]-propionic acid], with 42 nM. On the same count and under the same terms, then `Cc1nc(NC2CCc3cccc(O)c3C2)nc(C)c1C(=O)N[C@@H](CNC(=O)c1cccs1)C(=O)O` (stereo partly drawn) [Example 18, (S) 2-(2-[8-hydroxy-1,2,3,4-tetrahydro-naphthalen-2-ylamino]-4,6-dimethyl-pyrimidine-5-carbonyl-amino)-3-[(thiophene-2-carbonyl)-amino]-propionic acid], with 48 nM; and `Cc1nc(NCCCc2ccc(F)c(O)c2)nc(C)c1C(=O)N[C@@H](CNC(=O)c1cccs1)C(=O)O` [Example 65, (S)-2-({2-[3-(4-Fluoro-3-hydroxy-phenyl)-propylamino]-4,6-dimethyl-pyrimidine-5-carbonyl}-amino)-3-[(thiophene-2-carbonyl)-amino]-propionic acid], with 1300 nM. On the same count and under the same terms, the figure for `Cc1nc(NCCCc2cccc(O)c2)nc(C)c1C(=O)N[C@@H](CNC(=O)c1ccsc1)C(=O)O` [Example 85, (S)-2-({2-[3-(3-hydroxy-phenyl)-propylamino]-4,6-dimethyl-pyrimidine-5-carbonyl}-amino)-3-[(thiophene-3-carbonyl)-amino]-propionic acid] is 12 nM. Take `Cc1nc(NCc2ccccc2-c2ccccc2O)nc(C)c1C(=O)N[C@@H](CNC(=O)c1cccs1)C(=O)O` [Example 14, (S)-2-({2-[(2′-hydroxy-biphenyl-2-ylmethyl)-amino]-4,6-dimethyl-pyrimidine-5-carbonyl}-amino)-3-[(thiophene-2-carbonyl)-amino]-propionic acid]: under setting [1], the IC50 is 500 nM.
